# Reference: US6156541A (priority 1998, dated 2000)
# Where a SMILES comes first, the peptide text is derived from it. [ ]: non-standard residue; d: D form. The star is where a group is joined. Sta = CC(C)C[C@H](N)[C@@H](O)CC(=O)O; Isovaleryl = CC(C)CC(=O)*
# System: Lay2 L chain, human monoclonal antibody light chain (Bence Jones protein, kappa IIc subgroup) from a multiple myeloma patient
# Assay type: biochemical
row,SMILES,Effect on Lay2-catalyzed gp120 hydrolysis
1,CC(C)CC(=O)N[C@H](C(=O)N[C@H](C(=O)N[C@@H](CC(C)C)[C@@H](O)CC(=O)N[C@@H](C)C(=O)N[C@@H](CC(C)C)[C@@H](O)CC(=O)O)C(C)C)C(C)C [Pepstatin A] (Isovaleryl-VV[Sta]A[Sta]-OH),without effect
2,NC(=O)CI [iodoacetamide],without effect
3,O=C(O)CN(CCN(CC(=O)O)CC(=O)O)CC(=O)O [EDTA],without effect
